{"source": "patent US20250057944A1", "about": "“OLIGOSACCHARIDE COMPLEXES AND USES” (BioNTech SE, priority 2021, published 2025)", "key": {"[1]": {"assay": "Hydrodynamic diameter of complexes by dynamic light scattering", "format": "physicochemical", "description": "Sizes of complexes described in the present examples were analyzed by DynaPro PlateReader II, using dynamic light scattering (DLS) for calculating the hydrodynamic diameter of complexes. […] Ten acquisitions are recorded per well, each lasting 5 seconds."}, "BALB/c mice [2]": {"test_system": "BALB/c mice", "conditions": "mouse, in vivo"}, "BALB/c mice [3]": {"test_system": "BALB/c mice", "conditions": "mouse, in vivo", "remark": "listed apart in the source"}, "C57BL/6 IFNAR −/− mice": {"test_system": "C57BL/6 IFNAR −/− mice", "format": "in vivo"}, "BALB/c mice [4]": {"test_system": "BALB/c mice", "assay": "In-vivo luciferase expression in applied tissue after i.m. application of RNA complexes", "conditions": "N/P 6 (FIG. 7B)"}, "hPBMCs": {"test_system": "hPBMCs", "assay": "Cytokine secretion by hPBMCs 24 h after transfection with modRNA formulations (MSD kit)", "format": "cell-based, human", "conditions": "oligosaccharide:Tween40 1:0.5, modRNA, N/P 6, 24 hours (FIGS. 19A-D)", "description": "All groups received modRNA formulated at N/P 6. Formulations were complexed with RNA in MBG Buffer (final concentration 5% w/v Glucose, 10 mM MES, pH 6.1), at RNA final concentration of 0.15 mg/ml and the mixing ratio of the RNA containing solution and the oligosaccharide+Tween40 containing solution was 9:1 (v:v) for all the cases. IL-6, TNF-α, IL-1β and IFN-γ secretion after 24 hours of transfection of […] hPMBCs was evaluated in the supernatants using MSD Kit Standard Protocol."}, "BALB/c mice [5]": {"test_system": "BALB/c mice", "assay": "Intramuscular vaccination with HA modRNA formulated with oligosaccharide+Tween40 (Example 10)", "conditions": "mouse, in vivo"}}, "data": [{"smiles": "CCCCCCCCCC(=O)OC1C(OC(=O)CCCCCCCCC)[C@H](OC(=O)CCCCCCCCC)C(CSCCNC(=S)NCCN(C)C)O[C@@H]1O[C@H]1OC(CSCCNC(=S)NCCN(C)C)[C@@H](OC(=O)CCCCCCCCC)C(OC(=O)CCCCCCCCC)C1OC(=O)CCCCCCCCC", "note": "(stereo partly drawn) [JLF41]", "values": [{"measurement": "Difference in particle size between N/P 1 and N/P 6", "setting": "[1]; modRNA (FIG. 6A)", "result": "greater difference in particle size"}]}, {"smiles": "CCCCCCCCCC(=O)OC1C(OC(=O)CCCCCCCCC)[C@H](OC(=O)CCCCCCCCC)C(CSCCNC(=S)NCCN2CCOCC2)O[C@@H]1O[C@H]1OC(CSCCNC(=S)NCCN2CCOCC2)[C@@H](OC(=O)CCCCCCCCC)C(OC(=O)CCCCCCCCC)C1OC(=O)CCCCCCCCC", "note": "(stereo partly drawn) [JLF99]", "values": [{"measurement": "CD4-CD8 response versus LNP benchmark", "setting": "BALB/c mice [2]", "result": "no significant difference"}, {"measurement": "IgG against HA-antigen over the course of the experiment versus LNP benchmark", "setting": "BALB/c mice [2]", "result": "no apparent differences"}, {"measurement": "Serological concentration of IgG at the end-point (day 49)", "setting": "BALB/c mice [2]", "result": "comparable to the LNP group"}, {"measurement": "Delivery of RNAs and immune response", "setting": "BALB/c mice [3]", "result": "functionally delivered all the RNAs upon i.m injection and elicited a strong immune response"}, {"measurement": "Hydrodynamic diameter", "setting": "[1]; saRNA, N/P 6 (FIG. 5A)", "result": "about 150 nm"}, {"measurement": "Immunological response with CCHFV-Gc antigen", "setting": "C57BL/6 IFNAR −/− mice; JLF99+Tween40 1:0.5, 1.3 μg saRNA i.m., prime/boost d0/d28, N/P6", "result": "strong immunological response"}, {"measurement": "Antibody level versus LNP", "setting": "C57BL/6 IFNAR −/− mice; mouse, in vivo", "result": "lower than the LNP"}, {"measurement": "Antibody levels versus LNP benchmark", "setting": "C57BL/6 IFNAR −/− mice; mouse, in vivo", "result": "identical to the ones achieved by the LNP benchmark"}, {"measurement": "T-cell responses against Gc-peptides", "setting": "C57BL/6 IFNAR −/− mice; mouse, in vivo", "result": "equally strong"}, {"measurement": "modRNA expression (bioluminescence normalized to the JLF41-modRNA group)", "setting": "BALB/c mice [4]", "result": "promising modRNA expression"}]}, {"smiles": "CCCCCCCCCC(=O)OC1C(OC(=O)CCCCCCCCC)[C@H](OC(=O)CCCCCCCCC)C(CSCCNC(=S)NCCn2ccnc2)O[C@@H]1O[C@H]1OC(CSCCNC(=S)NCCn2ccnc2)[C@@H](OC(=O)CCCCCCCCC)C(OC(=O)CCCCCCCCC)C1OC(=O)CCCCCCCCC", "note": "(stereo partly drawn) [JLF110]", "values": [{"measurement": "Level of secretion of pro-inflammatory cytokines, IL-6, TNF-α, IL-1β and IFN-γ", "setting": "hPBMCs", "result": "medium levels of secretion"}]}, {"smiles": "CCCCCCCCCC(=O)OC[C@@]1(O[C@H]2OC(CSCCNC(=S)NCCN3CCOCC3)[C@@H](OC(=O)CCCCCCCCC)[C@H](OC(=O)CCCCCCCCC)C2OC(=O)CCCCCCCCC)O[C@H](CSCCNC(=S)NCCN2CCOCC2)[C@@H](OC(=O)CCCCCCCCC)[C@@H]1OC(=O)CCCCCCCCC", "note": "(stereo partly drawn) [JLF218]", "values": [{"measurement": "IgG concentration against HA", "setting": "BALB/c mice [5]", "result": "then by JLF99 and JLF218"}]}, {"smiles": "CCCCCCCCCC(=O)OC1C(OC(=O)CCCCCCCCC)[C@H](OC(=O)CCCCCCCCC)C(CSCCNC(=S)NCCN2CCC(C(N)=O)CC2)O[C@@H]1O[C@H]1OC(CSCCNC(=S)NCCN2CCC(C(N)=O)CC2)[C@@H](OC(=O)CCCCCCCCC)C(OC(=O)CCCCCCCCC)C1OC(=O)CCCCCCCCC", "note": "(stereo partly drawn) [JLF244]", "values": [{"measurement": "IgG concentration against HA", "setting": "BALB/c mice [5]", "result": "highest IgG concentration"}, {"measurement": "Level of secretion of pro-inflammatory cytokines, IL-6, TNF-α, IL-1β and IFN-γ", "setting": "hPBMCs", "result": "highest level of secretion"}]}]}
